The results in this text go back to ChEMBL document CHEMBL2150967, “Novel Quinolinones as Activators of AMP Activated Protein Kinase: Patent Highlight” (ACS Med Chem Lett, 2012).

Test [1] deals with AMP-activated protein kinase, AMPK (Homo sapiens) (UniProt P54646+O43741+P54619+Q9UGJ0+Q9Y478+Q13131+Q9UGI9). Description: (§1) Activation of recombinant human AMPK by FRET assay.
The target of test [2] is AMP-activated protein kinase, AMPK. The description is as §1.

By pEC50 is commonly meant the EC50 on a negative log10 scale, so that one unit is a factor of ten. In the case of `Cc1cc(-c2c(O)c3cc(-c4ccc(N(C)C)cc4)c(Cl)cc3[nH]c2=O)no1`, the pEC200 in test [1] was under 5. The pEC50 in test [2] is given as under 5.5.
The matching figures for `COc1cccc(-c2ccc(-c3cc4c(O)c(-n5cccn5)c(=O)[nH]c4cc3Cl)cc2)c1`: under 5 and under 5.5.
The matching figures for `Cc1nc(-c2c(O)c3cc(-c4ccc(N(C)C)cc4)c(Cl)cc3[nH]c2=O)c(C)s1`: under 5 and under 5.5.
As for `Cc1nc(-c2c(O)c3cc(-c4ccc(N5CCCCC5)cc4)c(Cl)cc3[nH]c2=O)cs1`, the pEC200 in test [1] was under 5. In test [2], the pEC50 is given as under 5.5.
Turning to `Cc1ccn(-c2c(O)c3cc(-c4ccc(N5CCCC5)cc4)c(Cl)cc3[nH]c2=O)n1`, the pEC200 in test [1] is under 5. Further, the pEC50 in test [2] was under 5.5.
